≈ marks a conversion by molar mass, not a printed value. Where two headings read alike, the source gives them in different places.
Assays:
[1] = biological target: T1, NIS (Rattus norvegicus, UniProt Q63008); experiment: NIS-inhibition assay (iodide uptake, Sandell–Kolthoff reaction) on FRTL-5; format: cell-based; settings: mean ± SD, ≥ 3 independent experiments; 2 h exposure; SK reaction
T1 construct: the endogenously NIS-expressing rat FRTL-5 cell line; host or cells: FRTL-5 (CVCL_0265)
T1 sequence (Q63008 1-618): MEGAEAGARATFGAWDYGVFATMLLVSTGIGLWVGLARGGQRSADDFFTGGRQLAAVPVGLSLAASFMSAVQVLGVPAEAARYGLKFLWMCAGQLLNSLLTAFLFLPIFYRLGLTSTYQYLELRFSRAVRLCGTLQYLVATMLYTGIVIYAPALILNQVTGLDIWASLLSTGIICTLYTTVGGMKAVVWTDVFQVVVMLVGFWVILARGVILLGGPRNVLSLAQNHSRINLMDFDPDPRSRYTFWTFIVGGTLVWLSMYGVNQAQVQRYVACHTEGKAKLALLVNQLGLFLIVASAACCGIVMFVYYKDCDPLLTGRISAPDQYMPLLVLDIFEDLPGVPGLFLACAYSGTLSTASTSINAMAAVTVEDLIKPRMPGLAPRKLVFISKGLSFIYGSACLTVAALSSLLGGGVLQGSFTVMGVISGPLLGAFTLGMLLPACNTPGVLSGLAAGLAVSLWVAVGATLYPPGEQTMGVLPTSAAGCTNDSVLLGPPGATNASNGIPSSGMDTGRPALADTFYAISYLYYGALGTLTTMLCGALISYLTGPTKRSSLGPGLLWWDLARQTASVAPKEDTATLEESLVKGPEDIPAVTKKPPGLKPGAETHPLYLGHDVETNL

[2] = system: FRTL-5 cells; experiment: Neutral red uptake viability assay, FRTL-5; settings: mean±SD, 2 h exposure
[3] = system: HEK293T NIS C cells; experiment: Neutral red uptake viability assay, HEK293T NIS C; settings: mean±SD, 2 h exposure
[4] = biological target: T2, human NIS (Homo sapiens, UniProt Q92911); experiment: NIS-inhibition assay (iodide uptake, Sandell–Kolthoff reaction) on HEK293T NIS 02; format: cell-based; set-up: host or cells: HEK293T (lentiviral transduction, puromycin selection, GFP sorting; lines NIS 02 and NIS C); settings: mean ± SD, ≥ 3 independent experiments, 2 h exposure, SK reaction; for IC50: read-out: NIS IC50 HEK293T NIS 02
T2 sequence (Q92911 1-643): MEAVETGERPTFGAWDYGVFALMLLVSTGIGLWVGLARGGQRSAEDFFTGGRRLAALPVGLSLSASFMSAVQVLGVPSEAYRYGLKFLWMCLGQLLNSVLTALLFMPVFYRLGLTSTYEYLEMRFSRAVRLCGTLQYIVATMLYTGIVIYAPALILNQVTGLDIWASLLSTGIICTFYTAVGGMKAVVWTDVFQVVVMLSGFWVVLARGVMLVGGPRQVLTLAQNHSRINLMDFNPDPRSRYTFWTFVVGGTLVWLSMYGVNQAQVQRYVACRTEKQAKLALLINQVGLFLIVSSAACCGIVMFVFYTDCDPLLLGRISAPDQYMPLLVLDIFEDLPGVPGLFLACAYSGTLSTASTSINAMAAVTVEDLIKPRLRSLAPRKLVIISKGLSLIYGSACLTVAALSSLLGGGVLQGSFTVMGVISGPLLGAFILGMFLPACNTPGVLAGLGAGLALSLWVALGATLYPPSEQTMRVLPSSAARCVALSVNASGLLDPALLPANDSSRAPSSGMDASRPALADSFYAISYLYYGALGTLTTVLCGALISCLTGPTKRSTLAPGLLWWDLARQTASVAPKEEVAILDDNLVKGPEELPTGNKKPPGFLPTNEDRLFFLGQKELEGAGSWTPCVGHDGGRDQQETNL

[5] = biological target: T2, human NIS; experiment: NIS-inhibition assay (iodide uptake, Sandell–Kolthoff reaction) on HEK293T NIS C; format: cell-based; set-up: host or cells: HEK293T (lentiviral transduction, puromycin selection, GFP sorting; lines NIS 02 and NIS C); settings: mean ± SD, ≥ 3 independent experiments; 2 h exposure; SK reaction
[6] = set-up: method as in PubChem https://pubchem.ncbi.nlm.nih.gov/; settings: ref PubChem https://pubchem.ncbi.nlm.nih.gov/; cited from earlier work
[7] = set-up: method as in PubChem https://pubchem.ncbi.nlm.nih.gov/; settings: ref PubChem https://pubchem.ncbi.nlm.nih.gov/; cited from earlier work; remark: listed apart in the source
[8] = ref PubChem https://pubchem.ncbi.nlm.nih.gov/; cited from earlier work
[9] = biological target: T2, human NIS; set-up: host or cells: HEK293T (lentiviral transduction, puromycin selection, GFP sorting; lines NIS 02 and NIS C); settings: hNIS-HEK293T-EPA, RAIU, cited from earlier work
[10] = biological target: T2, human NIS; experiment: Biotransformation (BTS, rat S9)-augmented NIS-inhibition assay, HEK293T NIS02; settings: for effect of fully active BTS (W/S9, W/cof) on NIS inhibition versus control setups: two-way ANOVA, p < 0.05; for IC20: three independent experiments

| SMILES | NIS IC50 FRTL-5 [1] | NR IC20 FRTL-5 [2] | NR IC20 HEK293T NISC [3] | NIS IC50 HEK293T NIS 02 [4] | NIS IC50 HEK293T NIS C [5] | log Kow [6] | Henry‘s law [7] | solubility in water [8] | Data from literature NIS IC50 ([9]; ref Buckalew et al., 2020) | Data from literature NIS IC50 ([9]; ref Hallinger et al., 2017) | IC50 [1] | effect of fully active BTS (W/S9, W/cof) on NIS inhibition versus control setups [10] | IC50 [4] | Data from literature NIS IC50 ([9]; ref Wang et al., 2019) | IC20 ([10]; read-out: NIS inhibition IC20 D S9, W/cof, 5 h preincubation with denatured S9 and cofactors) | IC20 ([10]; read-out: NIS inhibition IC20 SM, standard method without preincubation, run in parallel) | IC20 ([10]; read-out: NIS inhibition IC20 W/O S9, W/cof, 5 h preincubation without S9 fraction, with all cofactors) | IC50 ([9]; read-out: Data from literature NIS IC50, ref US-EPA, 2024) |
| --- | --- | --- | --- | --- | --- | --- | --- | --- | --- | --- | --- | --- | --- | --- | --- | --- | --- | --- |
| CC1(C)S[C@@H]2[C@H](NC(=O)[C@H](N)c3ccccc3)C(=O)N2[C@H]1C(=O)O [AMP, Ampicillin, reference compound] | n.e and n.e./ n.e. | n.e./ n.e. | n.e./ n.e. | n.e and n.e./ n.e. | n.e and n.e./ n.e. |  |  |  |  |  |  |  |  |  |  |  |  |  |
| S=C1NCCN1 [ETU, Ethylene thiourea] | n.e and n.e./ n.e. | n.e./ n.e. | n.e./ n.e. | n.e and n.e./ n.e. | n.e and n.e./ n.e. | -0.66 | 1.4x10^-11 atm- m^3/mol |  |  |  |  |  |  |  |  |  |  |  |
| CCC(Cc1c(I)cc(I)c(N)c1I)C(=O)O (centres unmarked) [IOP, Iopanoic acid, reference compound] | n.e and n.e. / n.e. | n.e. / n.e. | n.e. / n.e. | n.e and n.e. / n.e. | n.e and n.e. / n.e. |  |  | 348.3 µg/mL (≈ 610 µM) |  |  |  |  |  |  |  |  |  |  |
| CCCc1cc(=O)[nH]c(=S)[nH]1 [PTU, 6-Propylthiouracil, reference compound] | n.e and n.e. / n.e. | n.e. / n.e. | n.e. / n.e. | n.e and n.e. / n.e. | n.e and n.e. / n.e. |  | 1.1x10^-9 atm- m^3/mol |  | n.e. | n.e. |  |  |  |  |  |  |  |  |
| Oc1cccc(O)c1 [RSC, Resorcinol] |  | 4709.5 ±562 / n.e. | n.e./ n.e. |  | n.e and n.e./ n.e. | 0.8 | 9.9x10^-11 atm- m^3/mol |  |  |  | 4710 ± 562 µM | no significant differences were observed | 4060 ± 2050 µM | n.e. |  |  |  |  |
| O=C(O)c1ccccc1O [SA, Salicylic acid] | n.e and n.e. / n.e. | n.e. / n.e. | n.e. / n.e. | n.e and n.e. / n.e. | n.e and n.e. / n.e. | 2.26 |  |  |  |  |  |  |  |  |  |  |  |  |
| Cc1cc(NS(=O)(=O)c2ccc(N)cc2)no1 [SMX, Sulfamethoxazole, reference compound] | n.e and n.e. / n.e. |  |  | n.e and n.e. / n.e. | n.e and n.e. / n.e. |  |  |  |  |  |  |  |  |  |  |  |  |  |
| N[C@@H](Cc1cc(I)c(Oc2ccc(O)c(I)c2)c(I)c1)C(=O)O [T3, 3,3′,5-Triiodo-L-thyronine] |  | n.e. / n.e. | n.e. / n.e. |  |  | 0.93 |  |  |  |  |  |  |  |  |  |  |  |  |
| O=P(Oc1ccccc1)(Oc1ccccc1)Oc1ccccc1 [TPP, Triphenyl phosphate] |  | 92.6 ±24.1 / n.e. | n.e. / n.e. |  | n.e and n.e. / n.e. | 4.6 | 3.3x10^-6 atm- m^3/mol |  |  |  | 92.6 ± 24.1 µM | no biotransformation-related effect changes were detected | 42.8 ± 18.9 µM |  | 9.97 ± 3.36 µM | 7.93 ± 4.47 µM | 17.5 ± 7.2 µM | 50 µM |

— PMC12198292, “Advancing in vitro assessment of iodide uptake inhibition: integrating a novel biotransformation pretreatment step” (Archives of Toxicology, 2025)
